Two molecules from ChEMBL document CHEMBL1201862, “PubChem BioAssay data set” (2004) can be followed below.

In general, IC50 refers to the concentration that inhibits the measured activity by half. One may read the EC50 as the concentration giving half of the maximal effect. A word on the AC50: it is the concentration at which the activity in the assay is half-maximal.

The target in assay [1] is T1, Sentrin-specific protease 6 (Homo sapiens, UniProt Q9GZR1).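 Note: Luminescence-based dose-response confirmatory assay of SENP6 inhibition, following up an ultra-high-throughput screen.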
T1 sequence (Q9GZR1 whole entry): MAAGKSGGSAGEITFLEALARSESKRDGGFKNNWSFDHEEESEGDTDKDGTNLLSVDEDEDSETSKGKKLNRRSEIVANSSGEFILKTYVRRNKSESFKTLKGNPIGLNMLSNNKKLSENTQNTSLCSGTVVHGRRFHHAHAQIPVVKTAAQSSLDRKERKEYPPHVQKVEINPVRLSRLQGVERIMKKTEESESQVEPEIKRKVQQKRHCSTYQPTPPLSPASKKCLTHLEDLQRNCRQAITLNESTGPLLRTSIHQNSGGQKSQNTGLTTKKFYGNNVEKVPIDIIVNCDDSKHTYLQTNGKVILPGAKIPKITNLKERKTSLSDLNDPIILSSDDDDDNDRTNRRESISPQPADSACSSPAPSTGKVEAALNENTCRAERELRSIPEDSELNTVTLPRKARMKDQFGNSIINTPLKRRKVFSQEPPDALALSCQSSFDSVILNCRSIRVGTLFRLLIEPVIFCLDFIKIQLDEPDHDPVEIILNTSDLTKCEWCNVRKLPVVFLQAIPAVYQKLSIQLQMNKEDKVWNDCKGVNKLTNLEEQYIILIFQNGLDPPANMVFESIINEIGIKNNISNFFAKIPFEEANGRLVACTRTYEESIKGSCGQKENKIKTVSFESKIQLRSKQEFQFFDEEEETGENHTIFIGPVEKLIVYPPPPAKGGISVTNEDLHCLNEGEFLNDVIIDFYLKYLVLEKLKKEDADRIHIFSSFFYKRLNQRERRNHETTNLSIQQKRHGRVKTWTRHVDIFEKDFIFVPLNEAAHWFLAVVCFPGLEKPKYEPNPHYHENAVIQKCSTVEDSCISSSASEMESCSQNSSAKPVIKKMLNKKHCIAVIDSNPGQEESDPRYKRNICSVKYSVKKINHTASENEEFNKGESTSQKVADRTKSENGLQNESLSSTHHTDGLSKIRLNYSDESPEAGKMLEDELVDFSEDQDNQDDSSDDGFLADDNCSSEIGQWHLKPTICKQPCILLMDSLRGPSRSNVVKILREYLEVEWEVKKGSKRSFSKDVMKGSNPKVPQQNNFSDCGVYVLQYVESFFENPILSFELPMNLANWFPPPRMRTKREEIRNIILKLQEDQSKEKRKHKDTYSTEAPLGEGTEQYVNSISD
It is filed as functional.

Assay [2] has as its target T2, Zinc finger protein mex-5 (Caenorhabditis elegans, UniProt Q9XUB2).
T2 sequence (Q9XUB2 whole entry): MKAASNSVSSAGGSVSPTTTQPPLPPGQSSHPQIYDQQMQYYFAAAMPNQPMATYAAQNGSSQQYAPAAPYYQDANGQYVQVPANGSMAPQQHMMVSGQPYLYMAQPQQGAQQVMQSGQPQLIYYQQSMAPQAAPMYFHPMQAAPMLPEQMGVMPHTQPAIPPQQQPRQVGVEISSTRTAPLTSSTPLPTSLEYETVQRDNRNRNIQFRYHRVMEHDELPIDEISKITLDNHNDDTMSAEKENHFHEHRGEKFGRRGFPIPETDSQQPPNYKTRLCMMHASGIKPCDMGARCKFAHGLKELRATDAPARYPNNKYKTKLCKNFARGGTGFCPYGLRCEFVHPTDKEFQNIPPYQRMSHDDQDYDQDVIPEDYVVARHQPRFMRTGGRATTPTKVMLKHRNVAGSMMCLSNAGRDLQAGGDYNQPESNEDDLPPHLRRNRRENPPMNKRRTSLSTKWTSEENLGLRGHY
Briefly: MEX-5/TCR-2 RNA interaction inhibitors, dose response, biochemical, C. elegans, fluorescence polarization (AID 1960). In general terms: In fluorescence polarisation assays a small probe gives low polarisation when free and higher when bound to something large.

In assay [3] the target is T3, Endoribonuclease toxin MazF (Escherichia coli K-12, UniProt P0AE70).
T3 sequence (P0AE70 whole entry): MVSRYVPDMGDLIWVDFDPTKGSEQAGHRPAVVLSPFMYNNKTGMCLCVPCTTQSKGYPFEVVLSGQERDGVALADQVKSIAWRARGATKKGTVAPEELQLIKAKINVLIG
Briefly: MazF toxin RNase activators, dose response, biochemical, fluorescence, single-stranded RNA substrate, uHTS hits (AID 588481). The assay is classed as functional.

Assay [4] concerns the target Serine/threonine-protein phosphatase (Homo sapiens, UniProt Q9BPW0). As to the kind of experiment: PP5 phosphatase inhibitors, dose response, biochemical, fluorescence (AID 2395).
The target of assay [5] is T4, Replicative DNA helicase DnaB (Mycobacterium tuberculosis, UniProt P9WMR3).
T4 sequence (P9WMR3 whole entry): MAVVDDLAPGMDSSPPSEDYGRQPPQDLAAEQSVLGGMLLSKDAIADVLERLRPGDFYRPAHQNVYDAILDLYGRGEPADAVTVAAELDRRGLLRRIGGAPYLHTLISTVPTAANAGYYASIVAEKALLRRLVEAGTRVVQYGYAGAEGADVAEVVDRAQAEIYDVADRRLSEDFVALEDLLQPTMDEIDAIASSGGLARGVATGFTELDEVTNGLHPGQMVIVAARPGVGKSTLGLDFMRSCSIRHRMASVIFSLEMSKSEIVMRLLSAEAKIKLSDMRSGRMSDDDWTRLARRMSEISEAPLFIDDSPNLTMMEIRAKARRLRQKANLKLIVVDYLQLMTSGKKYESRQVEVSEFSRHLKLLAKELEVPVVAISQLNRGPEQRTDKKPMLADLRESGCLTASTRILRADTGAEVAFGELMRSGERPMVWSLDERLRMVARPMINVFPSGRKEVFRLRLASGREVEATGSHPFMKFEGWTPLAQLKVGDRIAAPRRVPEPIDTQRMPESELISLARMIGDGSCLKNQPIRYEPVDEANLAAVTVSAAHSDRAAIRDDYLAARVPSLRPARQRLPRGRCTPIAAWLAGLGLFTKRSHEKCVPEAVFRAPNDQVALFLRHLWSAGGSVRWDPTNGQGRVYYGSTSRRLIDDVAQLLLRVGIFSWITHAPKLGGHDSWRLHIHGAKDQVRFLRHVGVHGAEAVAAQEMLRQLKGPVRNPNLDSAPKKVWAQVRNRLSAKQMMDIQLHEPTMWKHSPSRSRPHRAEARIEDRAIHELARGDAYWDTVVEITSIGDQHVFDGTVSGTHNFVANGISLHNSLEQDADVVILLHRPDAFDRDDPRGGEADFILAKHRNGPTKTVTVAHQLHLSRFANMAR
As to the kind of experiment: DnaB intein splicing inhibitors, dose response, biochemical, cell-free fluorescence (AID 449749). It is filed as functional.

Calls of active or inactive are those of the source.

Chain of Serine/threonine-protein phosphatase (Q9BPW0 whole entry): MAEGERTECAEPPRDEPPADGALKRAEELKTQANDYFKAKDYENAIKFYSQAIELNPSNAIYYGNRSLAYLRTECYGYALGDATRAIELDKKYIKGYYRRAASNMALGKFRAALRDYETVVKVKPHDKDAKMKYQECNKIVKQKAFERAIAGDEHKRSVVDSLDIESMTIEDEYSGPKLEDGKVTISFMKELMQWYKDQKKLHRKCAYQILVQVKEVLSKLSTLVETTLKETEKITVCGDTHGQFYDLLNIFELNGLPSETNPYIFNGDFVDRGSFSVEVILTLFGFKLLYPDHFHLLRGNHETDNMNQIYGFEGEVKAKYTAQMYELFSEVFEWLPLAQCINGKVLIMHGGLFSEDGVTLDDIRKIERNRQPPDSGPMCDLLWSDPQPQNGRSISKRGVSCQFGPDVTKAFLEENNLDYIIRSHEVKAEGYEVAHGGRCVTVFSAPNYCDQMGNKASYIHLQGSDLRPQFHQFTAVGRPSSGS

As for `Oc1[nH]c2ccccc2c1N=Nc1ccc(F)cc1`, the IC50 in assay [1] was 2.03 µM (active). Besides, the EC50 in assay [2] was > 300 µM (inconclusive); in assay [3] it was > 99 µM (inactive).
For `O=C1C(Nc2ccccc2)=C(N2CCCCC2)C(=O)c2ccccc21`, the IC50 in assay [4] is on record as > 67 µM (not active). In assay [5], the AC50 was 68.5 µM (active).
